# Reference: patent publication US9656984B2, “PI3K/AKT/mTOR inhibitors and pharmaceutical uses thereof” (UNIVERSITE DE RENNES 1, priority 2013, dated 2017)
# How the values were obtained:
# [1] = system: T47-D (ER-positive) breast tumor cell line; assay: Cell death by MTT assay, T47-D; format: cell-based, human; conditions: 24 hours, mean of four experiments
# Protocol: (§1) The ER-positive breast tumor cell lines MCF-7 and T47-D and the HER2 positive breast tumor cell lines MDA-MB-453 and BT474 (also ER-positive) were incubated with the indicated concentration of each mentioned compound of formula (I) for 24 hours and then cell death was assessed using MTT assay.
# (§2) For each cell line, the percentage of cell death (mean of four experiments for cell lines MCF-7 and T47-D, and two experiments for cell lines MDA-MB-453 and BT474) is given in view of the increasing concentration of each tested compound of the invention.
# (§3) Cell viability was assessed using the 3-[4,5-dimethylthiazol-2-yl]-2,5-diphenyltetrazolium bromide (MTT) viability assay (1). In brief, cells (4×10^4 per well) were cultured for 20 h in flat-bottomed 96 well plates with various concentrations of the apoptosis inducer. Then 0.015 ml of MTT (5 mg/ml in PBS) was added to each well and incubated for 4 h at 37° C. Formazan salt precipitats were dissolved by adding 0.115 ml of isopropyl alcohol containing 1% formic acid (v/v), and the absorbance was measured at 570 nm.
# [2] = biological target: mTORC1 (Homo sapiens, UniProt P42345); assay: Immunoblot of mTORC1 activity in TSC2^−/− AML cells; format: cell-based; parameters: AML cells (1.10^6 cells) deficient for TSC2 (TS2^−/−) or reconstituted with wild type TSC2; endogenous in cells; host or cells: AML (angiomyolipoma) cells from a patient, TSC2-/- or reconstituted with wild type TSC2; conditions: 10 μM, FIG. 15
# Protocol: AML cells (1.10^6 cells) deficient for TSC2 (TS2^−/−) or reconstituted with wild type TSC2 (TSC2^+/+) (generous gift from Dr M. Pende, Paris) were treated or untreated for indicated times with 10 μM of compound 25 or rapamycin and then cells were lyzed. 100 μg of protein was loaded and resolved by SDS-PAGE and indicated immunoblots were performed. Total S6 and β-actin serve as loading controls. S6 is phosphorylated by p70S6K on its serine 240 and 244. 4EBP1 is phosphorylated by mTORC1 on its Threonine at positions 37 and 46. p70S6K and 4EBP1 are direct substrates of mTORC1. mTORC1-driven phosphorylation of 4EBP1 can be monitored by the appearance of a high molecular weight band which disappears in presence of compound 25 or Rapamycin (see FIG. 15). Of note, restoration of TS2 expression in AML cells reduces the basal level of S6 and 4EBP1 phosphorylation.
# Immunoblots Excepted for immunoprecipitation experiments in which cells were lyzed with RIPA buffer, cells were lyzed for 30 min at 4° C. in Lysis buffer (25 mM HEPES pH 7.4, 1% v/v Triton X-100, 150 mM NaCl, 2 mM EGTA supplemented with a mix of protease inhibitors). Protein concentration was determined by the bicinchoninic acid method (Pierce, Rockford, Ill., USA) according to the manufacturer's protocol. Proteins were resolved by 8, 10 or 12% SDS-PAGE and transferred to a nitrocellulose membrane (GE Healthcare, Buckinghamshire, UK). […]
# [3] = In vivo toxicity, repeated intravenous injections in mice; conditions: 10 mg/kg
# Protocol: Mice received repeated intravenous injections of compound 25 (10 mg/kg) or vehicle.
# [4] = system: TSC2^−/− AML (AngioMyoLipoma) cells; assay: Cell viability by MTT assay on TSC2^−/− and TSC2^+/+ AML cells; format: cell-based, human; conditions: 16 hours, 1% fetal calf serum
# Protocol: AML (AngioMyoLipoma) cells from a patient (generous gift from Dr M. Pende, Paris) were enriched for TSC2^−/− cells, as a model of tuberous sclerosis. These cells have been reconstituted with wild type TSC2 (TSC2^+/+). Cell proliferation was assessed in cells from angiomyolipomas and their counterparts reconstituted with wild type TSC2.
# Cell viability was assessed by MTT assay. Cells were incubated for 16 hours in a 1% fetal calf serum-containing medium supplemented with the indicated concentrations of the two mTOR inhibitors, compound 25 or rapamycin (see FIGS. 14B and 14C). Data represent mean and standard deviation of three independent experiments.
# as §3
# [5] = biological target: T1, mTOR protein regarding 243 human kinases (Homo sapiens, UniProt P42345); assay: Kinome by KinaseProfiler; format: biochemical; conditions: 1 μM, FIG. 11
# T1 construct: purchased
# [6] = system: BT474 (ER-positive/HER2-positive) breast tumor cell line; assay: Cell death by MTT assay, BT474; format: cell-based, human; conditions: 24 hours, mean of two experiments
# Protocol: as §1, §2, §3
# [7] = system: MDA-MB-231 cells; assay: Boyden chamber cell migration, MDA-MB-231 stimulated with CD95L; format: cell-based, human; conditions: MDA-MB-231, 1 μM, CD95L 100 ng/ml, 24 hours, FIG. 17B
# Protocol: TNBC (MDA-MB-231 and BT549) cell lines were pre-incubated for 1 hour in presence or absence of non-cytotoxic amount of compound 25 (1 μM) and then treated or untreated with CD95L (100 ng/ml) for 24 hours. Cell migration was analyzed using Boyden chamber assay. Migrating Giemsa-stained cells were lysed and absorbance was measured at a wavelength of 560 nm. Values represent the means±SEM of three independently performed experiments. *p<0.05 as calculated using two-tailed Mann-Whitney test.
# After membrane hydration of Boyden chambers (Millipore, Molsheim, France) containing 8 μm pore membranes, 10^5 cells were added to the top chamber. The bottom chamber was filled with low serum (1%)-containing medium in the presence or absence of cl-CD95L (100 ng/ml). Breast cancer cells were incubated for 24 h. To quantify invasion, cells were fixed with methanol and stained with Giemsa. Stained cells were then removed from the top-side of the membrane using a cotton-tipped swab and five representative pictures for each insert were taken of the invading cells from the reverse side. For each experiment, invading cells were lysed and absorbance at 560 nm was measured.
smiles,measurement,setting,value
"O=[N+]([O-])C1=Cc2cc(Br)cc(Br)c2OC1c1ccc(Br)cc1 (centres unmarked) [Compound 25, 6,8-dibromo-2-(4-bromo-phenyl)-3-nitro-2H-chromene]",percentage of cell death,[1]; 6.25 μM,85.31%
same,percentage of cell death,[1]; 12.5 μM,91.27%
same,percentage of cell death,[1]; 25 μM,90.23%
same,percentage of cell death,[1]; 50 μM,91.25%
same,mTORC1 activity in TSC2^−/− cells,[2],inhibit mTORC1 activity
same,mTORC1-driven phosphorylation of 4EBP1 (high molecular weight band),[2]; AML cells,disappears
same,toxicity in mice,[3],did not exhibit toxicity
same,body weight of the tested mice,[3]; FIG. 13A,maintained
same,survival of the tested mice,"[3]; at 7 days, FIG. 13B",all mice survived
same,"sensitivity of TSC2^−/− cells versus wild type TSC2^+/+ cells (cell death, MTT)",[4]; FIG. 14B,more sensitive
same,efficiency to kill TSC2^−/− cells compared with rapamycin,[4]; FIGS. 14B and 14C,more efficient
same,selectivity in kinome,[5],selectivity of compound 25 for the mTOR protein
same,percentage of cell death,"[6]; BT474, 6.25 μM",75.54%
same,percentage of cell death,"[6]; BT474, 12.5 μM",95.61%
same,percentage of cell death,"[6]; BT474, 25 μM",90.49%
same,percentage of cell death,"[6]; BT474, 50 μM",96.81%
same,migration of tumor cells stimulated with CD95L,[7],abrogate
